US20240158446A1, “CYCLIC COMPOUND HAVING SELECTIVE INHIBITORY ACTION ON KRAS OVER HRAS AND NRAS” (CHUGAI SEIYAKU KABUSHIKI KAISHA, priority 2021, published 2024)
*1 amine or outer side, *2 acyl side, *3 side chain or, on linkers, in order; H or OH if unused. Where a SMILES comes first, the peptide text is derived from it. Bridges are numbered along the chain shown (N, C = ends). [ ]: non-standard residue; d: D form. The star is where a group is joined. hPhe(3,5-F2-4-CF3) = N[C@@H](CCc1cc(F)c(C(F)(F)F)c(F)c1)C(=O)O; NPrPhe(4-CF3) = CCCN[C@@H](Cc1ccc(C(F)(F)F)cc1)C(=O)O; NMeGly(cPent) = CN[C@H](C(=O)O)C1CCCC1; X8 = C[C@@](N[*:1])(C(=O)[*:2])C1CC1; NMeD = CN[C@@H](CC(=O)O)C(=O)O; NMeL = CN[C@@H](CC(C)C)C(=O)O; αMeS = C[C@](N)(CO)C(=O)O; Morpholide = C1CN(*)CCO1; Aze = O=C(O)[C@@H]1CCN1; Sar = CNCC(=O)O; Allyl = C=CC*

Columns and labels:
[1] = system: human lung cancer strain NCI-H441;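 note: cell proliferation inhibition after four days measured by CellTiter-Glo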
[2] = target: GDP-bound HRAS wild-type protein (Homo sapiens, UniProt P01112); test: Binding to HRAS by surface plasmon resonance (SPR), Single Cycle Kinetics; settings: SPR, GDP-bound HRAS wild-type protein vs GDP-bound KRAS wild-type protein
Sequence of GDP-bound HRAS wild-type protein (P01112 whole entry): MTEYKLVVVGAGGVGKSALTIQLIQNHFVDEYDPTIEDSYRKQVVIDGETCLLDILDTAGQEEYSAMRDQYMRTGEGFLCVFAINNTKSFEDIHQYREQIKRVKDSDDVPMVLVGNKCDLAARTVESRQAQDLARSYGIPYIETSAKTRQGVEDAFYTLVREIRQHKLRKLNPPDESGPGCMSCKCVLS

[3] = target: GDP-bound NRAS wild-type protein (Homo sapiens, UniProt P01111); test: Binding to NRAS by surface plasmon resonance (SPR), Single Cycle Kinetics; settings: SPR, GDP-bound NRAS wild-type protein vs GDP-bound KRAS wild-type protein
Sequence of GDP-bound NRAS wild-type protein (P01111 whole entry): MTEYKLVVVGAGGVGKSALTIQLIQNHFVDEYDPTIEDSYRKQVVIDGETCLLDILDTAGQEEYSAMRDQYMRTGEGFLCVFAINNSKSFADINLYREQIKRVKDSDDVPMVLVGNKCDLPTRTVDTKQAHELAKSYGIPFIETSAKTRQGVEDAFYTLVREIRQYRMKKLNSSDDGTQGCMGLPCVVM

| Compound | IC50 [1] [nM] | HRAS/KRAS (ratio of KD value with respect to HRAS to KD value with respect to KRAS) [2] | NRAS/KRAS (ratio of KD value with respect to NRAS to KD value with respect to KRAS) [3] |
| --- | --- | --- | --- |
| CC[C@H](C)[C@@H]1NC(=O)[C@H](CC(C)C)N(C)C(=O)C[C@@H](C(=O)N2CCOCC2)N(C)C(=O)[C@H](C2CCCC2)N(C)C(=O)C2(CCCC2)NC(=O)[C@@H]2CCCN2C(=O)[C@H](CCc2ccc(C(F)(F)F)c(Cl)c2)NC(=O)CN(C)C(=O)[C@H](Cc2ccc(OC)cc2)N2C/C=C\CC[C@@H](C2=O)N(C)C(=O)CN(C)C1=O [PP0609] | 468 | B (a compound having 3 or more and less than 10 is denoted as B) | B (a compound having 3 or more and less than 10 is denoted as B) |
| CC[C@H](C)[C@@H]1NC(=O)[C@H](CC(C)C)N(C)C(=O)C[C@@H](C(=O)N2CCOCC2)N(C)C(=O)[C@H](C2CCCC2)N(C)C(=O)C2(CCCC2)NC(=O)[C@@H]2CCCN2C(=O)[C@H](CCc2ccc(C(F)(F)F)c(Cl)c2)NC(=O)CN(C)C(=O)[C@H](Cc2ccccc2)N2CCCCC[C@@H](C2=O)N(C)C(=O)CN(C)C1=O [PP0611] | 88.9 | B (a compound having 3 or more and less than 10 is denoted as B) | B (a compound having 3 or more and less than 10 is denoted as B) |
| CC[C@H](C)[C@@H]1NC(=O)[C@H](CC(C)C)N(C)C(=O)C[C@@H](C(=O)N(C)C)N(C)C(=O)[C@H](C2CCCC2)N(C)C(=O)C2(CCCC2)NC(=O)[C@@H]2CCCN2C(=O)[C@H](CCc2ccc(C(F)(F)F)c(Cl)c2)NC(=O)CN(C)C(=O)[C@H](Cc2ccc(C)cc2)N2CC/C=C(/C)C[C@@H](C2=O)N(C)C(=O)CN(C)C1=O [PP0616] | 73.8 | B (a compound having 3 or more and less than 10 is denoted as B) | B (a compound having 3 or more and less than 10 is denoted as B) |
| CC[C@H](C)[C@@H]1NC(=O)[C@H](CC(C)C)N(C)C(=O)C[C@@H](C(=O)N(C)C)N(C)C(=O)[C@@H](C2CCCC2)N(C)C(=O)C2(CCCC2)NC(=O)[C@@H]2CCCN2C(=O)[C@H](CCc2ccc(C(F)(F)F)c(Cl)c2)NC(=O)CN(C)C(=O)[C@H](Cc2ccc(C(F)(F)F)cc2)N2CC/C=C(/C)C[C@@H](C2=O)N(C)C(=O)CN(C)C1=O [PP0617] | 159 | B (a compound having 3 or more and less than 10 is denoted as B) | B (a compound having 3 or more and less than 10 is denoted as B) |
| CC[C@H](C)[C@@H]1NC(=O)[C@@H](CC(C)C)N(C)C(=O)C[C@@H](C(=O)N(C)C)N(C)C(=O)[C@@H](C2CCCC2)N(C)C(=O)C2(CCCC2)NC(=O)[C@@H]2CCCN2C(=O)[C@H](CCc2ccc(C(F)(F)F)c(Cl)c2)NC(=O)CN(C)C(=O)[C@@H](Cc2ccc(C(F)(F)F)cc2)N2CC/C=C\CCN(CC2=O)C(=O)CN(C)C1=O [PP0619] | 70.7 | C (A compound having a KD ratio of 0.1 or more and less than 3 is denoted as C) | C (A compound having a KD ratio of 0.1 or more and less than 3 is denoted as C) |
| CC[C@H](C)[C@@H]1NC(=O)[C@H](CC(C)C)N(C)C(=O)C[C@@H](C(=O)N(C)C)N(C)C(=O)[C@H](C2CCCC2)N(C)C(=O)C2(CCCC2)NC(=O)[C@@H]2CCCN2C(=O)[C@H](CCc2ccc(C(F)(F)F)c(Cl)c2)NC(=O)CN(C)C(=O)[C@H](Cc2ccc(C)cc2)N2CC=C(C)C[C@@H](C2=O)N(C)C(=O)CN(C)C1=O [PP0620] | 38.4 | C (A compound having a KD ratio of 0.1 or more and less than 3 is denoted as C) | C (A compound having a KD ratio of 0.1 or more and less than 3 is denoted as C) |
| CC[C@H](C)[C@@H]1NC(=O)[C@@H](CC(C)C)N(C)C(=O)C[C@@H](C(=O)N(C)C)N(C)C(=O)[C@H](C2CCCC2)N(C)C(=O)C2(CCCC2)NC(=O)[C@@H]2CCCN2C(=O)[C@@H](CCc2ccc(C(F)(F)F)c(Cl)c2)NC(=O)CN(C)C(=O)[C@@H](Cc2ccc(C(F)(F)F)cc2)N2C/C=C\COC[C@@H](C2=O)N(C)C(=O)CN(C)C1=O [PP0626] | 158 | C (A compound having a KD ratio of 0.1 or more and less than 3 is denoted as C) | C (A compound having a KD ratio of 0.1 or more and less than 3 is denoted as C) |
| CCO[C@@H]1C[C@H]2C(=O)NC3(CCC3)C(=O)N(C)[C@@H](C3CCCC3)C(=O)N(CCC3CCCC3)[C@H](C(=O)N3CCOCC3)CC(=O)N(C)[C@@H](CC(C)C)C(=O)N[C@@H]([C@@H](C)CC)C(=O)N(C)CC(=O)N(C)[C@H]3CCCCCN(C3=O)[C@@H](Cc3ccc(C(F)(F)F)cc3)C(=O)N(C)CC(=O)N[C@@H](CCc3cc(F)c(C(F)(F)F)c(F)c3)C(=O)N2C1 [PP0641] | > 1300 | A (a compound having 10 or more and less than 20 is denoted as A) | A (a compound having 10 or more and less than 20 is denoted as A) |
| CCO[C@@H]1C[C@H]2C(=O)NC3(CCC3)C(=O)N(C)[C@@H](C3CCCC3)C(=O)N(C)[C@H](C(=O)N(C)C)CC(=O)N(C)[C@@H](CC(C)(C)C)C(=O)N[C@@H]([C@@H](C)CC)C(=O)N(C)CC(=O)N(C)[C@H]3CCCCCN(C3=O)[C@@H](Cc3ccc(C(F)(F)F)cc3)C(=O)N(C)CC(=O)N[C@@H](CCc3cc(F)c(C(F)(F)F)c(F)c3)C(=O)N2C1 [PP0669] | 20.3 | B (a compound having 3 or more and less than 10 is denoted as B) | B (a compound having 3 or more and less than 10 is denoted as B) |

Continued, in another order:

| IC50 [1] [nM] | Compound | HRAS/KRAS (ratio of KD value with respect to HRAS to KD value with respect to KRAS) [2] | NRAS/KRAS (ratio of KD value with respect to NRAS to KD value with respect to KRAS) [3] |
| --- | --- | --- | --- |
| 11.3 | CCO[C@@H]1C[C@H]2C(=O)NC3(CCC3)C(=O)N(C)[C@@H](C3CCCC3)C(=O)N(C)[C@H](C(=O)N(C)C)CC(=O)N(C)[C@@H](CC3CCCC3)C(=O)N[C@@H]([C@@H](C)CC)C(=O)N(C)CC(=O)N(C)[C@H]3CCCCCN(C3=O)[C@@H](Cc3ccc(C(F)(F)F)cc3)C(=O)N(C)CC(=O)N[C@@H](CCc3cc(F)c(C(F)(F)F)c(F)c3)C(=O)N2C1 [PP0670] | B (a compound having 3 or more and less than 10 is denoted as B) | B (a compound having 3 or more and less than 10 is denoted as B) |
| 19.7 | CCO[C@@H]1C[C@H]2C(=O)NC3(CCC3)C(=O)N(C)[C@@H](C3CCCC3)C(=O)N(C)[C@H](C(=O)N(C)C)CC(=O)N(C)[C@@H](Cc3ccccc3)C(=O)N[C@@H]([C@@H](C)CC)C(=O)N(C)CC(=O)N(C)[C@H]3CCCCCN(C3=O)[C@@H](Cc3ccc(C(F)(F)F)cc3)C(=O)N(C)CC(=O)N[C@@H](CCc3cc(F)c(C(F)(F)F)c(F)c3)C(=O)N2C1 [PP0672] | B (a compound having 3 or more and less than 10 is denoted as B) | B (a compound having 3 or more and less than 10 is denoted as B) |
| 44.1 | CCO[C@@H]1C[C@H]2C(=O)NC3(CCC3)C(=O)N(C)[C@@H](C3CCCC3)C(=O)N(C)[C@H](C(=O)N3CCOCC3)CC(=O)N(C)[C@@H](Cc3ccccc3)C(=O)N[C@@H]([C@@H](C)CC)C(=O)N(C)CC(=O)N(C)[C@H]3CCCCCN(C3=O)[C@@H](Cc3ccc(C(F)(F)F)cc3)C(=O)N(C)CC(=O)N[C@@H](CCc3cc(F)c(C(F)(F)F)c(F)c3)C(=O)N2C1 [PP0687] | B (a compound having 3 or more and less than 10 is denoted as B) | B (a compound having 3 or more and less than 10 is denoted as B) |
| 42.3 | CCO[C@@H]1C[C@H]2C(=O)NC3(CCC3)C(=O)N(C)[C@@H](C3CCCC3)C(=O)N(C)[C@H](C(=O)N3CCOCC3)CC(=O)N(C)[C@@H](Cc3cccnc3)C(=O)N[C@@H]([C@@H](C)CC)C(=O)N(C)CC(=O)N(C)[C@H]3CCCCN(C3=O)[C@@H](Cc3ccc(C(F)(F)F)cc3)C(=O)N(C)CC(=O)N[C@@H](CCc3cc(F)c(C(F)(F)F)c(F)c3)C(=O)N2C1 [PP0718] | B (a compound having 3 or more and less than 10 is denoted as B) | C (A compound having a KD ratio of 0.1 or more and less than 3 is denoted as C) |
| 83 | C=CCOC[C@]1(C)NC(=O)[C@@H]2CCCN2C(=O)[C@H](CCc2cc(F)c(C(F)(F)F)c(F)c2)NC(=O)CN(C)C(=O)[C@H](Cc2ccc(C(F)(F)F)cc2)N(CCC)C(=O)CN(C)C(=O)CN(C)C(=O)[C@H]([C@@H](C)CC)NC(=O)[C@H](CC(C)C)N(C)C(=O)C[C@@H](C(=O)N2CCOCC2)N(C)C(=O)[C@H](C2CCCC2)N(C)C1=O [PP0763] ([NMeL]I[Sar][Sar][NPrPhe(4-CF3)][Sar][hPhe(3,5-F2-4-CF3)]P[αMeS](Allyl)[NMeGly(cPent)][NMeD]-Morpholide; lactam N-11) | B (a compound having 3 or more and less than 10 is denoted as B) | B (a compound having 3 or more and less than 10 is denoted as B) |
| 434 | CCCN1C(=O)CN(C)C(=O)[C@@H]2CCN2C(=O)[C@H]([C@@H](C)CC)NC(=O)[C@H](CC(C)C)N(C)C(=O)C[C@@H](C(=O)N2CCOCC2)N(C)C(=O)[C@H](C2CCCC2)N(C)C(=O)[C@](C)(C2CC2)NC(=O)[C@@H]2CCCN2C(=O)[C@H](CCc2cc(F)c(C(F)(F)F)c(F)c2)NC(=O)CN(C)C(=O)[C@@H]1Cc1ccc(C(F)(F)F)cc1 [PP0772] ([NMeL]I[Aze][Sar][NPrPhe(4-CF3)][Sar][hPhe(3,5-F2-4-CF3)]P[X8][NMeGly(cPent)][NMeD]-Morpholide; lactam N-11) | B (a compound having 3 or more and less than 10 is denoted as B) | B (a compound having 3 or more and less than 10 is denoted as B) |
